{"source": "paper PMC3745399", "about": "“An NO Donor Approach to Neuroprotective and Procognitive Estrogen Therapy Overcomes Loss of NO Synthase Function and Potentially Thrombotic Risk” (PLoS ONE, 2013)", "key": {"[1]": {"test_system": "primary cortical neurons exposed to OGD", "experiment": "Neuroprotection in oxygen glucose deprivation (OGD), MTT", "format": "cell-based, rat", "settings": "for neuroprotection with G15: 100 nM SERM + G15 100 nM (GPR30 antagonist); for neuroprotection with L-NAME: 100 nM SERM + L-NAME 100 µM (NOS antagonist), whether it attenuated neuroprotective activity; for neuroprotection with LY294002: 100 nM SERM + LY294002 10 µM (PI3K inhibitor); for neuroprotection with pertussis toxin: 100 nM SERM + pertussis toxin 100 ng/mL; for neuroprotection (cell survival by MTT): 100 nM, 2 h OGD, 24 h, no blocker, normalized to E2 10 nM (100%) and vehicle (0%)", "protocol": "Primary neuronal cultures were subjected to 2 h OGD with compounds added at the start of OGD and inhibitors added 45 min prior to OGD. Cell survival was measured at 24 h.\nPrimary cultures of dissociated cortical neurons were prepared as follows; briefly, cortices were dissected from E16-18 Sprague-Dawley rats (Charles River). After removal of meninges, cortices were manually dissociated and plated at a density of 10^6 cells/mL into 96-well plates. Twenty-four hours after plating, cultures were grown in Neurobasal A media supplemented with B27, glutamine and pen/strep, with media changes every 3–4 days. In accordance with published protocols, measured levels of glia in culture after DIV2 are <0.5%. Experiments were performed at DIV 11–12.\nThe cell media was changed to phenol red-free growing media at least 3 h before OGD. Receptor blockers were added 45 min prior to the start of OGD, and SERMs were added at the start of OGD, with concentrations maintained through media changes. For OGD, the cells were transferred to a hypoxia chamber controlled at 5% CO2 and <1% O2, and growth media was replaced with a physiological salt solution (in mM: NaCl 116, CaCl2 1.8, MgSO4 0.8, KCl 5.4, NaHCO3 14.7, NaHPO4 1, HEPES 10, pH = 7.4). After 2 h OGD, cells were removed from the chamber and growth media was replaced. After 24 h, cell viability was measured by MTT assay using a Dynex MRX ll micro-plate spectrophotometer."}, "[2]": {"test_system": "Ishikawa endometrial cancer cell line", "experiment": "ER-mediated transcriptional activity (antiestrogen) in Ishikawa cells", "format": "cell-based", "settings": "read-out: antiestrogen potency IC50, ER-mediated transcriptional activity"}, "[3]": {"test_system": "C57Bl/6 mice or eNOS(−/−) mice", "experiment": "Step-through passive avoidance (STPA) memory model", "format": "in vivo, mouse", "settings": "SERM 2 mg/kg; for reversal of scopolamine-induced memory deficit (STPA latency): scopolamine 1 mg/kg i.p., tested 24 h after training; for reversal of scopolamine-induced memory deficit in eNOS KO mice (STPA): scopolamine 1 mg/kg", "protocol": "In this assay, memory is tested 24 h after training and since drugs are only administered during training, any side effects, such as sedation, are highly unlikely to confound the testing results. Furthermore, criteria for training are uniform across all treatment groups. Previously, we have shown NO-donors to reverse cognitive deficits induced by attenuation of cholinergic signaling, [51], [52], [53].\nAmnestic memory deficit was induced by i.p. injection of either scopolamine (1 mg/kg) or L-NAME (50 mg/kg) 30 min prior to training in C57Bl/6 male mice. SERMs (2 mg/kg) were given 20 min prior to training and latency was assessed 24 h after training with animals being removed from the task if latency >300 s. All SERMs, except F-DMA, restored scopolamine-induced deficits in STPA in C57Bl/6 animals.\nAll experiments were performed either on 6–8 month old male C57B1/6 mice or eNOS(−/−) animals. Scopolamine (1 mg/kg) or L-NAME (50 mg/kg) were injected (i.p.) 30 min prior to training, while SERMs (2 mg/kg) were injected 20 min prior to training. Mice were placed in the light compartment of the light/dark box, and as soon as they entered the dark compartment, they received an electric shock (0.5 mA, 60 Hz for 2 seconds). This training was repeated until latency to enter the dark side reached 300 s. At 24 h post-training, animals were individually placed in the light compartment and the latency to enter the dark compartment was recorded with a 300 s cutoff. Details of this widely used assay of behavior have been discussed previously for NO-donor compounds [53], [54], [55]."}, "[4]": {"test_system": "hippocampal slices from 16-month old male 3×Tg mice", "experiment": "LTP in CA1 of hippocampal slices after theta burst stimulation", "design": "species or system mouse", "settings": "3×Tg slices; for enhancement of subsequent theta bursts during LTP induction: 100 nM; for end fEPSP: 100 nM added 30 min prior to TBS, untreated 3×Tg 97.0±6.4%, WT 134.7±10.3%", "protocol": "LTP in the CA1 field of the hippocampus is a well-studied cellular model for learning and memory. […] At 16 months, an advanced age at which Alzheimer's-like neuropathology is well developed in these animals, studies on LTP have not previously been reported. Nevertheless, we observed a robust, reproducible deficit in LTP in these aged transgenic mice, with field excitatory post-synaptic potentials (fEPSP) showing an end fEPSP of 97.0±6.4% of baseline at 45 min post-TBS, compared to 134.7±10.3% observed in the wild type (WT) transgenic background controls (Fig. 3A,B).\nFigure 3 Reversal of LTP deficit in aged 3×Tg mice by SERMs is GPR30 dependent. LTP was measured after TBS in the CA1 region of hippocampal sections from 16 month male 3×Tg mice or WT controls. Test compounds (SERMs 100 nM; G15 100 nM) were added 30 min prior to TBS. […] (C) Secondary analysis of theta bursts indicate action both during induction and stabilization of LTP, through a GPR30 dependent mechanism.\nAll experiments used 16-month old male 3×Tg transgenic or age-matched WT background controls. For electrophysiology, mice were rapidly decapitated, and brains were removed into an ice-cold aCSF solution (in mM: NaCl 124, KCl 3.0, KH2PO4 1.25, NaHCO3 25.7, D-glucose 10, L-ascorbate 2.0, MgSO4 2.5, and CaCl2 3.3) and sectioned on a tissue chopper into 400 µm sections. Slices were transported to a 37°C solution of aCSF, continuously bubbled with 95% O2/5% CO2, and allowed to recover at least 60 min before experimentation. After placement of a stimulation electrode in the Schaffer commissural fibers and recording electrodes with 2 M NaCl solution into the stratum radiatum of the CA1 area, stimulus intensity was set to evoke submaximal fEPSP and continuously monitored at 20 s intervals for at least 15 min to establish a stable baseline. SERMs (100 nM) and G15 (100 nM) were prepared fresh in perfusate and started at least 30 min before LTP induction to reach a new baseline after enhancement of basal synaptic transmission was observed. […] Resulting fEPSP was monitored at 20 s intervals for ∼60 min post TBS."}}, "data": [{"smiles": "Oc1ccc(-c2sc3cc(O)ccc3c2Oc2ccc(OCCN3CCCCC3)cc2)cc1", "note": "[DMA, desmethylarzoxifene]", "values": [{"measurement": "neuroprotection with G15", "setting": "[1]", "value": "blocked the neuroprotective activity"}, {"measurement": "neuroprotection with L-NAME", "setting": "[1]", "value": "did not"}, {"measurement": "neuroprotection with LY294002", "setting": "[1]", "value": "attenuated neuroprotective activity"}, {"measurement": "neuroprotection with pertussis toxin", "setting": "[1]", "value": "blocked the neuroprotective activity"}, {"measurement": "neuroprotection (cell survival by MTT)", "setting": "[1]", "value": "robust neuroprotection"}, {"measurement": "IC50", "setting": "[2]", "value": "0.1 ± 0.1", "unit": "nM"}, {"measurement": "reversal of scopolamine-induced memory deficit (STPA latency)", "setting": "[3]; C57Bl/6 male mice", "value": "complete reversal of the memory deficit"}, {"measurement": "reversal of scopolamine-induced memory deficit in eNOS KO mice (STPA)", "setting": "[3]", "value": "not influenced by treatment with DMA"}, {"measurement": "enhancement of subsequent theta bursts during LTP induction", "setting": "[4]", "value": "augmented"}, {"measurement": "end fEPSP", "setting": "[4]", "value": "144.9±8.7 % of baseline"}, {"measurement": "end fEPSP with G15", "setting": "[4]; DMA 100 nM + G15 100 nM", "value": "96.8±7.1", "unit": "%"}, {"measurement": "effect on LTP with ODQ (sGC inhibitor)", "setting": "[4]; ODQ 10 nM, variable interburst interval, preliminary", "value": "ODQ blocks effect of DMA on LTP"}]}, {"smiles": "O=[N+]([O-])OCCCC1CCN(CCOc2ccc(Oc3c(-c4ccc(O)cc4)sc4cc(O)ccc34)cc2)CC1", "note": "[NO-DMA, 3-(1-(2-(4-(6-hydroxy-2-(4-ydroxyphenyl)benzo[b]thiophen-3-yloxy)phenoxy)ethyl)piperidin-4-yl)propyl nitrate]", "values": [{"measurement": "neuroprotection with G15", "setting": "[1]", "value": "blocked the neuroprotective activity"}, {"measurement": "neuroprotection with ICI 182780", "setting": "[1]; 100 nM SERM + ICI 182780 100 nM, added 45 min prior to OGD", "value": "did not block this effect"}, {"measurement": "neuroprotection with L-NAME", "setting": "[1]", "value": "did not"}, {"measurement": "neuroprotection with LY294002", "setting": "[1]", "value": "attenuated neuroprotective activity"}, {"measurement": "neuroprotection with pertussis toxin", "setting": "[1]", "value": "blocked the neuroprotective activity"}, {"measurement": "neuroprotection (cell survival by MTT)", "setting": "[1]", "value": "robust neuroprotection identical to DMA"}, {"measurement": "IC50", "setting": "[2]", "value": "3.9 ± 1.3", "unit": "nM"}, {"measurement": "reversal of L-NAME-induced cognitive deficit (STPA latency)", "setting": "[3]; C57Bl/6 male mice, L-NAME 50 mg/kg i.p.", "value": "reversed by NO-DMA"}, {"measurement": "reversal of scopolamine-induced memory deficit (STPA latency)", "setting": "[3]; C57Bl/6 male mice", "value": "complete reversal of the memory deficit"}, {"measurement": "reversal of scopolamine-induced memory deficit in eNOS KO mice (STPA)", "setting": "[3]", "value": "significantly improved memory"}, {"measurement": "enhancement of subsequent theta bursts during LTP induction", "setting": "[4]", "value": "augmented"}, {"measurement": "end fEPSP", "setting": "[4]", "value": "144.2±5.2 % of baseline"}]}]}
